Measured values reported in patent US20260193116A1, “MEMBRANE TREATMENT METHOD, BIOFOULING INHIBITION METHOD, AND ENDOTOXIN PRODUCTION INHIBITION METHOD IN WATER SYSTEM” (KURITA WATER INDUSTRIES LTD., priority 2022, published 2026).

What was measured:
endotoxin [1] = test system: endotoxin
endotoxin [2] = test system: endotoxin; remark: listed apart in the source

Q: How did the Endotoxin concentration (endotoxin [1]) turn out when Chloramine [reference compound] was run?
A: 31.1 EU/mL

Q: `O=S(=O)(O)NCl.[Na]` [Chlorosulfamic acid, sodium monochlorosulfamic acid] was tested. Which “Endotoxin concentration compared to the treatments with chloramine, DBNPA and Cl-MIT alone” value (endotoxin [1]) did it give?
A: ≤ 50%

Q: And the “Discharge amount of endotoxin compared to raw water and Control (in words)” value (endotoxin [2])?
A: suppress the discharge amount of endotoxin to be low compared to the raw water and Control

Q: For `N#CC(Br)(Br)C(N)=O` [DBNPA, 2,2-dibromo-3-nitrilopropionamide, reference compound], which Endotoxin concentration (endotoxin [1]) is on record?
A: 19.1 EU/mL
